# Results reported in the supplement of paper PMC10307832.
# Key:
# Test in all cases: relative viability (nuclei count vs DMSO), 5 days (fraction); higher = more cells survive
# NCI-H441 = tested on: NCI-H441
# Procedure, shortened: (§1)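 Medians of duplicate plates are given as relative viability. That measure is the nuclei count in treated wells divided by the count in vehicle wells. Counts were taken on 4× images of lung cancer cell lines in 1536-well plates, 5 days after pin-tool dosing the day after seeding with one drug alone or a fixed anchor-drug dose plus five library-drug doses (not always all listed) in √10 steps.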
# NCI-H838 = tested on: NCI-H838
# Procedure, shortened: as §1
# NCI-H3122 = tested on: NCI-H3122
# Procedure, shortened: as §1
# COR-L23 = tested on: COR-L23
# Procedure, shortened: as §1
# NCI-H2170 = tested on: NCI-H2170
# Procedure, shortened: as §1
# LU99A = tested on: LU99A
# Procedure, shortened: as §1
# HARA = tested on: HARA
# Procedure, shortened: as §1
# COR-L 105 = tested on: COR-L 105
# Procedure, shortened: as §1
# NCI-H661 = tested on: NCI-H661
# Procedure, shortened: as §1
# LK-2 = tested on: LK-2
# Procedure, shortened: as §1
# NCI-H1650 = tested on: NCI-H1650
# Procedure, shortened: as §1
# BEN = tested on: BEN
# Procedure, shortened: as §1
# NCI-H727 = tested on: NCI-H727
# Procedure, shortened: as §1
# NCI-H2009 = tested on: NCI-H2009
# Procedure, shortened: as §1
# ABC-1 = tested on: ABC-1
# Procedure, shortened: as §1
# NCI-H1437 = tested on: NCI-H1437
# Procedure, shortened: as §1
# SW 900 = tested on: SW 900
# Procedure, shortened: as §1
# HCC-366 = tested on: HCC-366
# Procedure, shortened: as §1
# PC-14 = tested on: PC-14
# Procedure, shortened: as §1
# NCI-H1666 = tested on: NCI-H1666
# Procedure, shortened: as §1
# 201T = tested on: 201T
# Procedure, shortened: as §1
# EKVX = tested on: EKVX
# Procedure, shortened: as §1
smiles,measurement,setting,value
CC1(C)CCC(c2ccc(Cl)cc2)=C(CN2CCN(c3ccc(C(=O)NS(=O)(=O)c4ccc(N[C@H](CCN5CCOCC5)CSc5ccccc5)c(S(=O)(=O)C(F)(F)F)c4)cc3)CC2)C1 [Navitoclax] + Nc1ncn([C@H]2C[C@H](O)[C@@H](CO)O2)c(=O)n1 [Decitabine] (partner 2 µM),relative viability,NCI-H441; first compound 0.005 µM,0.255
same,relative viability,NCI-H441; first compound 0.01581 µM,0.217
same,relative viability,NCI-H441; first compound 0.05 µM,0.207
same,relative viability,NCI-H441; first compound 0.1581 µM,0.2
same,relative viability,NCI-H441; first compound 0.5 µM,0.237
same,relative viability,NCI-H838; first compound 0.005 µM,0.457
same,relative viability,NCI-H838; first compound 0.01581 µM,0.506
same,relative viability,NCI-H838; first compound 0.05 µM,0.47
same,relative viability,NCI-H838; first compound 0.1581 µM,0.423
same,relative viability,NCI-H838; first compound 0.5 µM,0.46
same,relative viability,NCI-H3122; first compound 0.005 µM,0.407
same,relative viability,NCI-H3122; first compound 0.01581 µM,0.446
same,relative viability,NCI-H3122; first compound 0.05 µM,0.471
same,relative viability,NCI-H3122; first compound 0.1581 µM,0.433
same,relative viability,NCI-H3122; first compound 0.5 µM,0.444
same,relative viability,COR-L23; first compound 0.005 µM,0.428
same,relative viability,COR-L23; first compound 0.01581 µM,0.425
same,relative viability,COR-L23; first compound 0.05 µM,0.432
same,relative viability,COR-L23; first compound 0.1581 µM,0.428
same,relative viability,COR-L23; first compound 0.5 µM,0.437
same,relative viability,NCI-H2170; first compound 0.005 µM,0.473
same,relative viability,NCI-H2170; first compound 0.01581 µM,0.484
same,relative viability,NCI-H2170; first compound 0.05 µM,0.475
same,relative viability,NCI-H2170; first compound 0.1581 µM,0.414
same,relative viability,NCI-H2170; first compound 0.5 µM,0.434
same,relative viability,LU99A; first compound 0.005 µM,0.876
same,relative viability,LU99A; first compound 0.01581 µM,0.977
same,relative viability,LU99A; first compound 0.1581 µM,0.921
same,relative viability,LU99A; first compound 0.5 µM,0.989
same,relative viability,HARA; first compound 0.005 µM,0.463
same,relative viability,HARA; first compound 0.01581 µM,0.736
same,relative viability,HARA; first compound 0.05 µM,0.414
same,relative viability,HARA; first compound 0.1581 µM,0.622
same,relative viability,HARA; first compound 0.5 µM,0.466
same,relative viability,COR-L 105; first compound 0.005 µM,0.737
same,relative viability,COR-L 105; first compound 0.01581 µM,0.89
same,relative viability,COR-L 105; first compound 0.05 µM,0.6
same,relative viability,COR-L 105; first compound 0.1581 µM,0.662
same,relative viability,COR-L 105; first compound 0.5 µM,0.537
same,relative viability,NCI-H661; first compound 0.005 µM,0.556
same,relative viability,NCI-H661; first compound 0.01581 µM,0.595
same,relative viability,NCI-H661; first compound 0.05 µM,0.545
same,relative viability,NCI-H661; first compound 0.1581 µM,0.547
same,relative viability,NCI-H661; first compound 0.5 µM,0.567
same,relative viability,LK-2; first compound 0.005 µM,0.295
same,relative viability,LK-2; first compound 0.01581 µM,0.279
same,relative viability,LK-2; first compound 0.05 µM,0.235
same,relative viability,LK-2; first compound 0.1581 µM,0.267
same,relative viability,LK-2; first compound 0.5 µM,0.4
same,relative viability,NCI-H1650; first compound 0.005 µM,0.43
same,relative viability,NCI-H1650; first compound 0.01581 µM,0.424
same,relative viability,NCI-H1650; first compound 0.05 µM,0.399
same,relative viability,NCI-H1650; first compound 0.1581 µM,0.364
same,relative viability,NCI-H1650; first compound 0.5 µM,0.334
same,relative viability,BEN; first compound 0.005 µM,0.784
same,relative viability,BEN; first compound 0.01581 µM,0.803
same,relative viability,BEN; first compound 0.05 µM,0.734
same,relative viability,BEN; first compound 0.1581 µM,0.712
same,relative viability,BEN; first compound 0.5 µM,0.443
same,relative viability,NCI-H727; first compound 0.005 µM,0.903
same,relative viability,NCI-H727; first compound 0.01581 µM,1.08
same,relative viability,NCI-H727; first compound 0.05 µM,0.839
same,relative viability,NCI-H727; first compound 0.1581 µM,0.786
same,relative viability,NCI-H727; first compound 0.5 µM,1.02
same,relative viability,NCI-H2009; first compound 0.005 µM,0.412
same,relative viability,NCI-H2009; first compound 0.01581 µM,0.441
same,relative viability,NCI-H2009; first compound 0.05 µM,0.382
same,relative viability,NCI-H2009; first compound 0.1581 µM,0.342
same,relative viability,NCI-H2009; first compound 0.5 µM,0.295
same,relative viability,ABC-1; first compound 0.005 µM,0.889
same,relative viability,ABC-1; first compound 0.01581 µM,1.21
same,relative viability,ABC-1; first compound 0.05 µM,1.02
same,relative viability,ABC-1; first compound 0.1581 µM,0.986
same,relative viability,ABC-1; first compound 0.5 µM,1
same,relative viability,NCI-H1437; first compound 0.005 µM,0.549
same,relative viability,NCI-H1437; first compound 0.01581 µM,0.547
same,relative viability,NCI-H1437; first compound 0.05 µM,0.619
same,relative viability,NCI-H1437; first compound 0.1581 µM,0.519
same,relative viability,NCI-H1437; first compound 0.5 µM,0.581
same,relative viability,SW 900; first compound 0.005 µM,0.406
same,relative viability,SW 900; first compound 0.01581 µM,0.412
same,relative viability,SW 900; first compound 0.1581 µM,0.445
same,relative viability,SW 900; first compound 0.5 µM,0.262
same,relative viability,HCC-366; first compound 0.005 µM,0.34
same,relative viability,HCC-366; first compound 0.01581 µM,0.4
same,relative viability,HCC-366; first compound 0.1581 µM,0.332
same,relative viability,HCC-366; first compound 0.5 µM,0.365
same,relative viability,PC-14; first compound 0.005 µM,0.237
same,relative viability,PC-14; first compound 0.01581 µM,0.2
same,relative viability,PC-14; first compound 0.05 µM,0.228
same,relative viability,PC-14; first compound 0.1581 µM,0.211
same,relative viability,PC-14; first compound 0.5 µM,0.19
same,relative viability,NCI-H1666; first compound 0.005 µM,0.781
same,relative viability,NCI-H1666; first compound 0.01581 µM,0.759
same,relative viability,NCI-H1666; first compound 0.05 µM,0.628
same,relative viability,NCI-H1666; first compound 0.1581 µM,0.692
same,relative viability,NCI-H1666; first compound 0.5 µM,0.765
same,relative viability,201T; first compound 0.005 µM,0.891
same,relative viability,201T; first compound 0.01581 µM,0.869
same,relative viability,201T; first compound 0.05 µM,0.77
same,relative viability,201T; first compound 0.1581 µM,0.824
same,relative viability,201T; first compound 0.5 µM,0.859
same,relative viability,EKVX; first compound 0.005 µM,0.372
same,relative viability,EKVX; first compound 0.01581 µM,0.428
same,relative viability,EKVX; first compound 0.05 µM,0.361
same,relative viability,EKVX; first compound 0.1581 µM,0.285
same,relative viability,EKVX; first compound 0.5 µM,0.343
